In patent US20220030868A1, “FUNGICIDAL HALOMETHYL KETONES AND HYDRATES” (FMC CORPORATION, priority 2018, published 2022):

Key:
[1] = tested on: Puccinia recondita f. sp. tritici; assay: Test B: test suspension sprayed on wheat seedlings one day before inoculation with Puccinia recondita f. sp. tritici spores (wheat leaf rust), disease rating; format: in vivo; settings: 100 = 100% disease control, 0 = no control
Method in brief: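 Wheat seedlings were sprayed to run-off with compound suspended in 50/50 acetone/water containing 250 ppm PEG400, then inoculated with P. recondita f. sp. tritici spores the next day. Plants were held 24 h in saturated air at 20 °C, then 6 days in a growth chamber at 20 °C. Disease control was rated 0–100% relative to controls, with some entries run at 50 or 10 ppm.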

[2] = tested on: Phakopsora pachyrhizi; assay: Test A: test suspension sprayed on soybean seedlings one day before inoculation with Phakopsora pachyrhizi spores (Asian soybean rust), visual disease rating; format: in vivo; settings: 100 = 100% disease control, 0 = no control; for pest or weed control at 50 ppm / pest or weed control at 10 ppm: Phakopsora pachyrhizi
Method in brief: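 Compound dissolved in acetone (3% of final volume), then suspended at the stated ppm in 50/50 acetone/water with 250 ppm PEG400 surfactant; sprayed to run-off on soybean seedlings, inoculated with P. pachyrhizi spores next day. Held saturated at 22° C for 24 h, then 8 days at 22° C; visual rating as % disease control versus controls.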

SMILES | Test B rating (disease control) ([1]; 10 ppm test suspension) [%] | Test A rating (disease control) ([2]; 10 ppm test suspension) [%] | also measured
C#CCNC(=O)c1ccc(O/C=C(\OCC)C(F)(F)F)cc1 [compound 102] | 0 | 0 | 
C=CCNC(=O)c1ccc(O/C=C(\OCC)C(F)(F)F)cc1 [compound 103] | 0 | 0 | 
CCCNC(=O)c1ccc(O/C=C(\OCC)C(F)(F)F)cc1 [compound 104] | 80 | 0 | 
CCO/C(=C\Oc1ccc(C(=O)NC)cc1)C(F)(F)F [compound 105] | 68 | 0 | 
CCO/C(=C\Oc1ccc(Cn2cc(C(=O)NCC(F)(F)F)cn2)cc1)C(F)(F)F [compound 106] | 0 | 0 | 
CCO/C(=C\Oc1ccc(Cn2cc(C(=O)NCC#N)cn2)cc1)C(F)(F)F [compound 107] | 0 | 0 | 
CCO/C(=C\Oc1ccc(CN)cc1)C(F)(F)F [compound 110] |  |  | Test B rating (disease control) ([1]; 50 ppm test suspension): 0%; Test A rating (disease control) ([2]; 50 ppm test suspension): 79%
CCOC(=O)NCc1ccc(O/C=C(\OCC)C(F)(F)F)cc1 [compound 111] | 0 | 0 | 
CC(C)COC(=O)NCc1ccc(OCC2(C(F)(F)F)OCCO2)cc1 [compound 112] | 0 | 0 | 
CCO/C(=C\Oc1ccc(CNC(=O)CC(F)(F)F)cc1)C(F)(F)F [compound 113] | 0 | 0 | 
CCO/C(=C\Oc1ccc(CNC(=O)C(C)OC)cc1)C(F)(F)F (centres unmarked) [compound 114] |  |  | Test B rating (disease control) ([1]; 50 ppm test suspension): 0%; Test A rating (disease control) ([2]; 50 ppm test suspension): 44%
CCOC(=O)c1cnn(Cc2ccc(SCC3(C(F)(F)F)OCCO3)cc2)c1 [compound 115] |  |  | Test B rating (disease control) ([1]; 250 ppm test suspension): 0%; Test A rating (disease control) ([2]; 250 ppm test suspension): 0%
CCO/C(=C\Oc1ccc(Cn2cc(C(=O)O)cn2)cc1)C(F)(F)F [compound 116] | 0 | 100 | 
CCO/C(=C\Oc1ccc(Cn2cc(C(=O)NCC3CC3)cn2)cc1)C(F)(F)F [compound 117] | 0 | 23 | 
CCO/C(=C\Oc1ccc(Cn2cc(C(=O)NC(C)C)cn2)cc1)C(F)(F)F [compound 118] | 0 | 0 | 
CCOC(=O)c1cnn(Cc2ccc(O/C=C(\OCC)C(F)(F)F)cc2)n1 [compound 119] | 0 | 97 | 
CCOC(=O)c1cnnn1Cc1ccc(O/C=C(\OCC)C(F)(F)F)cc1 [compound 120] | 0 | 0 | 
CCOC(=O)c1cn(Cc2ccc(O/C=C(\OCC)C(F)(F)F)cc2)nn1 [compound 121] | 0 | 100 | 
CCCCOC(=O)c1cnn(Cc2ccc(OCC3(C(F)(F)F)OCCO3)cc2)c1 [compound 125] | 0 | 100 | 
CCO/C(=C\Oc1ccc(Cc2nc(C(=O)NCC(F)(F)F)cs2)cc1)C(F)(F)F [compound 129] | 0 | 100 | 
CCO/C(=C\Oc1ccc(Cc2nc(C(=O)NCC3CC3)cs2)cc1)C(F)(F)F [compound 130] | 0 | 100 | 
CCOC(=O)c1cnn(CCc2ccc(OCC3(C(F)(F)F)OCCO3)cc2)c1 [compound 133] | 0 | 79 | 
O=C(OCC(F)(F)F)c1cnn(Cc2ccc(OCC3(C(F)(F)F)OCCO3)cc2)c1 [compound 134] | 32 | 89 | 
CCO/C(=C\Oc1ccc(Cn2cc(C(=O)OC(C)C)cn2)cc1)C(F)(F)F [compound 139] | 0 | 100 | 
CCOC(=O)c1cnn(Cc2ccc(C/C=C(\OCC)C(F)(F)F)cc2)c1 [compound 140] | 23 | 98 | 

SMILES | Test B rating (disease control) ([1]; 10 ppm test suspension) [%] | Test A rating (disease control) ([2]; 10 ppm test suspension) [%] | also measured
CCOC(=O)c1cnn(Cc2ccc(COCC3(C(F)(F)F)OCCO3)cc2)c1 [compound 141] | 0 | 0 | 
CCO/C(=C\Oc1ccc(-c2noc(C(F)(F)F)n2)cc1)C(F)(F)F [compound 143] | 0 | 0 | 
CCO/C(=C\Oc1ccc(C#N)cc1)C(F)(F)F [compound 144] | 0 | 78 | 
CCOC(=O)c1cnn(Cc2ccc(O/C=C(\OCCO)C(F)(F)F)cc2)c1 [compound 145] | 0 | 82 | 
CCOC(=O)c1cnn(Cc2cccc(OCC3(C(F)(F)F)OCCO3)c2)c1 [compound 146] |  |  | pest or weed control at 50 ppm ([1]; 50 ppm test suspension): 0%; pest or weed control at 50 ppm ([2]; 50 ppm test suspension): 60%
N#Cc1cccc(OCC2(C(F)(F)F)OCCO2)c1 [compound 147] |  |  | pest or weed control at 50 ppm ([1]; 50 ppm test suspension): 0%; pest or weed control at 50 ppm ([2]; 50 ppm test suspension): 77%
CCO/C(=C\Oc1ccc(C=O)cc1)C(F)(F)F [compound 148] | 0 | 0 | 
CCO/C(=C\Oc1ccc(CNS(=O)(=O)CC)cc1)C(F)(F)F [compound 149] | 0 | 0 | 
CCO/C(=C\Oc1ccc(CNC(=O)CC)cc1)C(F)(F)F [compound 150] | 0 | 33 | 
CCO/C(=C\Oc1ccc(Cn2cccn2)cc1)C(F)(F)F [compound 151] | 0 | 0 | 
CCO/C(=C\Oc1ccc(Cn2nc(C)cc2C)cc1)C(F)(F)F [compound 152] | 0 | 0 | 
CCOC(=O)c1cn(Cc2ccc(O/C=C(\OCC)C(F)(F)F)cc2)cn1 [compound 153] | 0 | 100 | 
CCO/C(=C\Oc1ccc(CC#N)cc1)C(F)(F)F [compound 154] | 0 | 0 | 
CCO/C(=C\Oc1ccc(CSC#N)cc1)C(F)(F)F [compound 155] | 0 | 0 | 
CCO/C(=C\Oc1ccc(Cn2ccnc2)cc1)C(F)(F)F [compound 156] | 0 | 0 | 
CCO/C(=C\Oc1ccc(Cn2ccc(C)n2)cc1)C(F)(F)F [compound 158] | 0 | 0 | 
CCOC(=O)c1ccc2c(cnn2Cc2ccc(OCC3(C(F)(F)F)OCCO3)cc2)c1 [compound 160] | 0 | 13 | 
O=C(OCCCCl)c1cnn(Cc2ccc(OCC3(C(F)(F)F)OCCO3)cc2)c1 [compound 161] | 0 | 100 | 
N#CCNC(=O)c1cnn(Cc2ccc(OCC3(C(F)(F)F)OCCO3)cc2)c1 [compound 164] | 0 | 31 | 
O=[N+]([O-])c1cccc(OCC2(C(F)(F)F)OCCO2)c1 [compound 165] |  |  | pest or weed control at 10 ppm ([1]; 10 ppm test suspension): 0%; pest or weed control at 10 ppm ([2]; 10 ppm test suspension): 0%
O=[N+]([O-])c1ccc(OCC2(C(F)(F)F)OCCO2)cc1 [compound 166] | 95 | 100 | 
CCOC(=O)c1cnn(Cc2ccc(CO/C=C(\OCC)C(F)(F)F)cc2)c1 [compound 167] | 0 | 38 | 
CCOC(=O)c1cnn(Cc2ccc(OCC3(C(F)(F)F)OCCO3)nc2)c1 [compound 168] |  |  | pest or weed control at 10 ppm ([1]; 10 ppm test suspension): 0%; pest or weed control at 10 ppm ([2]; 10 ppm test suspension): 0%
CC(=O)COC(=O)c1cnn(Cc2ccc(OCC3(C(F)(F)F)OCCO3)cc2)c1 [compound 169] | 0 | 100 | 
